Measured values taken from ChEMBL document CHEMBL4483862, “Open-source discovery of chemical leads for next-generation chemoprotective antimalarials” (2018).

Tested on: Plasmodium berghei
Assay: Luciferase/luciferin-expressing antifolate-resistant parasites were used to infect a culture of HepG2 cells that were pre-incubated with compounds. Infected hepatocytes emit light due to the luciferase reaction. Assay results are presented as the percent inhibition of light emission compared to control. […]
Assay type: functional
Details: sporozoite; for IC90: read-out: LUCIFERASE INFECTION ASSAY - IC90
[1] = read-out: LUCIFERASE INFECTION ASSAY - IC50

Structure (SMILES) | IC90 [µM] | other results
CCCn1c(NC(=O)c2ccc(CS(=O)(=O)c3ccccc3)o2)nc2ccccc21 | 4.08 | IC50 (HEPG2TOX_HILL_SLOPE 2.08, HEPG2TOX_R_SQUARED 0.973, PBLUC_HILL_SLOPE 1.97, PBLUC_R_SQUARED 0.429, read-out: LUCIFERASE INFECTION ASSAY - IC50): 1.34 µM
O=C(NC1CCSc2ccccc21)c1cnn(Cc2ccccc2Cl)c1 (stereo not given) | > 10 | IC50 (HEPG2TOX_HILL_SLOPE 8.01, HEPG2TOX_R_SQUARED 0.477, PBLUC_HILL_SLOPE 11.5, PBLUC_R_SQUARED 0.343, read-out: LUCIFERASE INFECTION ASSAY - IC50): 9.41 µM
Cc1cc(=O)[nH]n(-c2ccccc2)c1=O | 8.7 | IC50 (HEPG2TOX_HILL_SLOPE 8.84, HEPG2TOX_R_SQUARED 0.75, PBLUC_HILL_SLOPE 7.32, PBLUC_R_SQUARED 0.521, read-out: LUCIFERASE INFECTION ASSAY - IC50): 6.44 µM
O=C(NCCOc1ccc2ccccc2c1)c1ccccc1O | > 10 | IC50 (PBLUC_HILL_SLOPE 7.72, PBLUC_R_SQUARED 0.601, read-out: LUCIFERASE INFECTION ASSAY - IC50): 9.34 µM
CC(C)(C)c1ccc(C(=O)Nc2ccc(Oc3cccnc3)nc2)cc1 | > 9.5 | IC50 (HEPG2TOX_HILL_SLOPE 1.03, HEPG2TOX_R_SQUARED 0.91, PBLUC_HILL_SLOPE 1.13, PBLUC_R_SQUARED 0.427, read-out: LUCIFERASE INFECTION ASSAY - IC50): 3.06 µM
CN(C)c1cccc(-c2cnc3cnc(-c4cnn(Cc5ccccc5)c4)cn23)c1 | > 8.37 | IC50 [1]: > 8.37 µM
CC(=O)Nc1cccc(/C(C)=N/n2c(-c3cccc(Br)c3)cs/c2=N\c2ccc(F)cc2)c1 | 1.69 | IC50 (HEPG2TOX_HILL_SLOPE 2.5, HEPG2TOX_R_SQUARED 0.833, PBLUC_HILL_SLOPE 128, PBLUC_R_SQUARED 0.253, read-out: LUCIFERASE INFECTION ASSAY - IC50): 1.66 µM
Cn1cc(-c2cn3c(-c4ccc(C(C)(C)C)cc4)cnc3cn2)cn1 | > 9.96 | IC50 (PBLUC_HILL_SLOPE 3.33, PBLUC_R_SQUARED 0.519, read-out: LUCIFERASE INFECTION ASSAY - IC50): 6.79 µM
O=c1nc(-c2ccccn2)[nH]c2scc(-c3ccccc3)c12 | 2.25 | IC50 (HEPG2TOX_HILL_SLOPE 1.76, HEPG2TOX_R_SQUARED 0.7, PBLUC_HILL_SLOPE 112, PBLUC_R_SQUARED 0.058, read-out: LUCIFERASE INFECTION ASSAY - IC50): 2.21 µM
COc1cc(NC(=O)c2csc(C(O)c3cccc(C(F)(F)F)c3)n2)cc(OC)c1OC (stereo not given) | > 10 | IC50 [1]: > 10 µM
NC(Cc1ccc(Cl)cc1)c1csc(Nc2nncc3ccccc23)n1 (stereo not given) | > 8.64 | IC50 (PBLUC_HILL_SLOPE 1.01, PBLUC_R_SQUARED 0.151, read-out: LUCIFERASE INFECTION ASSAY - IC50): 5.44 µM
Cc1cc(-c2csc(Cc3ccccc3)n2)c(C)n1NC(=O)c1nn(C)c(=O)c2ccccc12 | > 10 | IC50 [1]: > 10 µM
N#C/C(=N\Nc1ccc(Cl)cc1)C(=O)c1ccsc1 | > 11.4 | IC50 [1]: > 11.4 µM
O=C1c2ccccc2O[C@@H](c2ccccc2)[C@H]1O | > 13.7 | IC50 [1]: > 13.7 µM
Cc1nn2c(=O)c(Cc3cccc(Cl)c3)c(C)[nH]c2c1-c1ccccc1 | 2.81 | IC50 (FFLUC_HILL_SLOPE 22.4, FFLUC_R_SQUARED 0.436, HEPG2TOX_HILL_SLOPE 3.67, HEPG2TOX_R_SQUARED 0.334, PBLUC_HILL_SLOPE 3.2, PBLUC_R_SQUARED 0.748, read-out: LUCIFERASE INFECTION ASSAY - IC50): 1.41 µM
CCn1cc(CN(C)C(=O)c2sc3cccc(Cl)c3c2Cl)c(C)n1 | > 8.63 | IC50 [1]: > 8.63 µM
CCCCOCCCNC(=O)c1cc2ccccc2cc1OC | > 10 | IC50 (PBLUC_HILL_SLOPE 2.53, PBLUC_R_SQUARED 0.451, read-out: LUCIFERASE INFECTION ASSAY - IC50): 6.56 µM
CCCCn1nc(C)c(/C=C/C(=O)N(CC)CC(=O)NCc2ccc(F)cc2)c1Cl | > 10 | IC50 (HEPG2TOX_HILL_SLOPE 2.05, HEPG2TOX_R_SQUARED 0.946, PBLUC_HILL_SLOPE 2.58, PBLUC_R_SQUARED 0.346, read-out: LUCIFERASE INFECTION ASSAY - IC50): 6.71 µM
Cc1ccc(NC(=O)c2cc(C(C)(C)C)n(-c3ccccc3)c2C)cc1 | 4.46 | IC50 [1]: 0.52 µM
CCOC(=O)c1sc(N)c(C#N)c1CSc1nnc(Nc2ccc(CC)cc2)s1 | 5.14 | IC50 (HEPG2TOX_HILL_SLOPE 1.26, HEPG2TOX_R_SQUARED 0.992, PBLUC_HILL_SLOPE 3.19, PBLUC_R_SQUARED 0.556, read-out: LUCIFERASE INFECTION ASSAY - IC50): 2.58 µM

Structure (SMILES) | IC90 [µM] | other results
CC(=O)c1c(C)[nH]c(C(=O)OCCOc2ccccc2)c1C | > 10 | IC50 (PBLUC_HILL_SLOPE 1.04, PBLUC_R_SQUARED 0.638, read-out: LUCIFERASE INFECTION ASSAY - IC50): 1.81 µM
COc1ccc(-c2cc3c(cn2)nc(NCCc2cc(OC)ccc2OC)n3C)c(C)c1 | 3.63 | IC50 (HEPG2TOX_HILL_SLOPE 1.97, HEPG2TOX_R_SQUARED 0.898, PBLUC_HILL_SLOPE 1.3, PBLUC_R_SQUARED 0.74, read-out: LUCIFERASE INFECTION ASSAY - IC50): 0.669 µM
Cc1cccc(CNc2nc3cnc(Nc4cccc(O)c4)cc3n2C)c1 | > 10 | IC50 (FFLUC_HILL_SLOPE 6.96, FFLUC_R_SQUARED 0.0526, HEPG2TOX_HILL_SLOPE 13.6, HEPG2TOX_R_SQUARED 0.973, PBLUC_HILL_SLOPE 10.5, PBLUC_R_SQUARED 0.188, read-out: LUCIFERASE INFECTION ASSAY - IC50): 8.85 µM
CC(C)(C)c1cc(NC(=O)COc2ccc3[nH]c4ccccc4c(=O)c3c2)n(-c2ccccc2)n1 | 0.752 | IC50 (FFLUC_HILL_SLOPE 14.6, FFLUC_R_SQUARED 0.0178, PBLUC_HILL_SLOPE 1.61, PBLUC_R_SQUARED 0.936, read-out: LUCIFERASE INFECTION ASSAY - IC50): 0.192 µM
O=C(Nc1ccccc1)c1ccc(C2(CNCc3cccnc3)CC2)cc1 | 0.637 | IC50 (PBLUC_HILL_SLOPE 3.24, PBLUC_R_SQUARED 0.623, read-out: LUCIFERASE INFECTION ASSAY - IC50): 0.323 µM
CC(C)Cc1ccc(C(C)NC(=O)c2ccc(O)nc2)cc1 (stereo not given) | > 10 | IC50 [1]: > 10 µM
Cn1ccnc1SCC(=O)Nc1ccc(C(=O)Nc2ncccc2O)cc1 | 5.1 | IC50 (PBLUC_HILL_SLOPE 5, PBLUC_R_SQUARED 0.401, read-out: LUCIFERASE INFECTION ASSAY - IC50): 3.28 µM
Cc1cccc(NC(=O)c2ccc(Cl)c(S(=O)(=O)Nc3c(C)n(C)n(-c4ccccc4)c3=O)c2)n1 | > 10 | IC50 (PBLUC_HILL_SLOPE 1.97, PBLUC_R_SQUARED 0.221, read-out: LUCIFERASE INFECTION ASSAY - IC50): 9.2 µM
CC(C)S(=O)(=O)c1csc(NC(=O)Nc2cccc(Cl)c2)c1 | > 9.2 | IC50 (PBLUC_HILL_SLOPE 17.1, PBLUC_R_SQUARED 0.0949, read-out: LUCIFERASE INFECTION ASSAY - IC50): 8.62 µM
O=C(CSCc1nc2ccccc2[nH]1)Nc1nc(-c2ccc(NC(=O)c3ccccc3)cc2)cs1 | > 10 | IC50 (PBLUC_HILL_SLOPE 14.9, PBLUC_R_SQUARED 0.81, read-out: LUCIFERASE INFECTION ASSAY - IC50): 9.28 µM
Cc1ccc(CN2CCC3(CC2)C(=O)N(C(C)C)C(=O)N3CCc2ccccc2)o1 | > 8.06 | IC50 (HEPG2TOX_HILL_SLOPE 8.85, HEPG2TOX_R_SQUARED 0.516, read-out: LUCIFERASE INFECTION ASSAY - IC50): > 8.06 µM
NC(=O)c1cccc(-c2ccc3ncc(-c4cccnc4)n3n2)c1 | 5.41 | IC50 (HEPG2TOX_HILL_SLOPE 3.58, HEPG2TOX_R_SQUARED 0.988, PBLUC_HILL_SLOPE 1.15, PBLUC_R_SQUARED 0.587, read-out: LUCIFERASE INFECTION ASSAY - IC50): 0.804 µM
Cn1cc(Br)cc1C(=O)Nc1ccc2c(c1)OCCO2 | > 10 | IC50 [1]: > 10 µM
COC(=O)c1ccc(N2CCN(c3ccccc3Cl)CC2)nc1 | > 9.95 | IC50 (HEPG2TOX_HILL_SLOPE 4.29, HEPG2TOX_R_SQUARED 0.95, PBLUC_HILL_SLOPE 9.99, PBLUC_R_SQUARED 0.342, read-out: LUCIFERASE INFECTION ASSAY - IC50): 8.41 µM
Cc1cc(-c2cc(C(=O)N3CCCN(C)c4nc5ccccc5nc43)c3c(C)noc3n2)c(C)s1 | 0.385 | IC50 (PBLUC_HILL_SLOPE 42.2, PBLUC_R_SQUARED 0.606, read-out: LUCIFERASE INFECTION ASSAY - IC50): 0.366 µM
CCc1noc(C)c1C(=O)OCc1csc(N(C(C)=O)c2ccccc2)n1 | > 10 | IC50 [1]: > 10 µM
CN(C)C(=O)c1ccc(NCC(=O)N2N=C(c3ccc(Cl)cc3)CC2c2ccco2)cc1 (stereo not given) | 8.21 | IC50 (PBLUC_HILL_SLOPE 25.7, PBLUC_R_SQUARED 0.49, read-out: LUCIFERASE INFECTION ASSAY - IC50): 7.54 µM
Cc1cccc(Nc2ncc(C(=O)c3cccc(-c4ccncc4)c3)[nH]2)c1 | 2.02 | IC50 (HEPG2TOX_HILL_SLOPE 1.98, HEPG2TOX_R_SQUARED 0.759, PBLUC_HILL_SLOPE 4.11, PBLUC_R_SQUARED 0.608, read-out: LUCIFERASE INFECTION ASSAY - IC50): 1.18 µM
Cn1ccc2cc(-c3cnc4cnc(-c5cccc(C(N)=O)c5)cn34)ccc21 | > 8.98 | IC50 (HEPG2TOX_HILL_SLOPE 1.25, HEPG2TOX_R_SQUARED 0.898, PBLUC_HILL_SLOPE 0.953, PBLUC_R_SQUARED 0.66, read-out: LUCIFERASE INFECTION ASSAY - IC50): 1.23 µM
COc1ccc(-c2ccc3nnc(-c4ccccc4)n3c2)cc1 | 5.12 | IC50 (HEPG2TOX_HILL_SLOPE 1.32, HEPG2TOX_R_SQUARED 0.91, PBLUC_HILL_SLOPE 2.27, PBLUC_R_SQUARED 0.548, read-out: LUCIFERASE INFECTION ASSAY - IC50): 1.94 µM
